# Tested on: L. acidophilus NCFM
# Test: RNA-seq transcriptional analysis of L. acidophilus NCFM growing on plant glycosides
# Format: cell-based, Lactobacillus acidophilus
# [1] = LBA1955 Transcription regulator family protein, COG K
# [2] = gene LBA0046 (Hypothetical protein)
# [3] = gene LBA0149 (Putative nucleotide-binding protein)
# [4] = gene LBA0263 (Hypothetical protein)
# [5] = gene LBA0282 (Hypothetical protein)
# [6] = gene LBA0327 (Replication protein)
# [7] = gene LBA0328 (Hypothetical protein)
# [8] = gene LBA0330 (Hypothetical protein)
# [9] = gene LBA0457 (Hypothetical protein)
# [10] = gene LBA0485 (Hypothetical protein)
# [11] = gene LBA0486 (Hypothetical protein)
# [12] = gene LBA0487 (Hypothetical protein.)
# [13] = gene LBA0492 (Hypothetical protein)
# [14] = gene LBA0541 (Cadmium-transporting ATPase)
# [15] = gene LBA0542 (Putative heavy-metal-transporting alpase)
# [16] = gene LBA0543 (Hypothetical protein)
# [17] = gene LBA0544 (Transcriptional regulator)
# [18] = gene LBA0555 (Myosin-crossreactive antigen)
# [19] = gene LBA0564 (HAD family hydrolase)
# [20] = gene LBA0574 (ABC multi drug exporter)
# [21] = gene LBA0575 (ABC multi drug exporter)
# [22] = gene LBA0604 (Immunity protein)
# [23] = gene LBA0605 (Putative hydrolase)
# [24] = gene LBA0608 (Hypothetical protein)
# [25] = gene LBA0631 (Hypothetical protein)
# [26] = gene LBA0649 (Myosin-crossreactive antigen)
# [27] = gene LBA0728 (Hypothetical protein LBA0728)
# [28] = gene LBA1025 (Aldo/keto reductase family oxidoreductase)
# [29] = gene LBA1026 (Aldo/keto reduetase family oxidoreductase)
# [30] = gene LBA1206 (Hypothetical protein)
# [31] = gene LBA1401 (Peroxidase (Npx))
# [32] = gene LBA1435 (Hypothetical protein)
# [33] = gene LBA1455 (Putative surface layer protein)
# [34] = gene LBA1656 (Hypothetical protein)
# [35] = gene LBA1675 (Hypothetical protein)
# [36] = gene LBA1676 (ATP-dependent helicase)
# [37] = gene LBA1683 (Putative magnesium-transporting atpase)
# [38] = gene LBA1704 (N-Acetylmuramic acid-6-phosphate etherase)
# [39] = gene LBA1740 (Hypothetical protein)
# [40] = gene LBA1752 (Hypothetical protein)
# [41] = gene LBA1769 (Hypothetical protein)
# [42] = gene LBA1793 (Hypothetical protein)
# [43] = gene LBA1869 (Beta-phosphoglueomutase)
# [44] = gene LBA1895 (Hypothetical protein)
smiles,measurement,setting,value
OC[C@H]1O[C@@H](O[C@H]2[C@H](O)[C@@H](O)[C@@H](O)O[C@@H]2CO)[C@H](O)[C@@H](O)[C@H]1O [Lac],Log2 differential normalized TPM ratio compared to glucose,"LBA1878 Glycerol kinase, COG C",0
same,Transcripts per million (rpm),"LBA1878 Glycerol kinase, COG C",8.9 rpm
same,Log2 differential normalized TPM ratio compared to glucose,[1],−0.4
same,Transcripts per million (rpm),[1],403.9 rpm
same,Log2 differential normalized TPM ratio compared to glucose,[2],0.7
same,Transcripts per million (rpm),[2],506.3 rpm
same,Log2 differential normalized TPM ratio compared to glucose,[3],0.8
same,Transcripts per million (rpm),[3],850.2 rpm
same,Log2 differential normalized TPM ratio compared to glucose,[4],0.7
same,Transcripts per million (rpm),[4],27 rpm
same,Log2 differential normalized TPM ratio compared to glucose,[5],0.6
same,Transcripts per million (rpm),[5],32.7 rpm
same,Log2 differential normalized TPM ratio compared to glucose,[6],0.2
same,Transcripts per million (rpm),[6],9.5 rpm
same,Log2 differential normalized TPM ratio compared to glucose,[7],−0.1
same,Transcripts per million (rpm),[7],13.2 rpm
same,Log2 differential normalized TPM ratio compared to glucose,[8],0.3
same,Transcripts per million (rpm),[8],26.6 rpm
same,Log2 differential normalized TPM ratio compared to glucose,[9],1
same,Transcripts per million (rpm),[9],977.4 rpm
same,Log2 differential normalized TPM ratio compared to glucose,[10],2.4
same,Transcripts per million (rpm),[10],1078 rpm
same,Log2 differential normalized TPM ratio compared to glucose,[11],2.8
same,Transcripts per million (rpm),[11],1593.4 rpm
same,Log2 differential normalized TPM ratio compared to glucose,[12],1.3
same,Transcripts per million (rpm),[12],82.6 rpm
same,Log2 differential normalized TPM ratio compared to glucose,[13],2.4
same,Transcripts per million (rpm),[13],44.2 rpm
same,Log2 differential normalized TPM ratio compared to glucose,[14],2
same,Transcripts per million (rpm),[14],167.4 rpm
same,Log2 differential normalized TPM ratio compared to glucose,[15],2.2
same,Transcripts per million (rpm),[15],409.6 rpm
same,Log2 differential normalized TPM ratio compared to glucose,[16],2.3
same,Transcripts per million (rpm),[16],345.9 rpm
same,Log2 differential normalized TPM ratio compared to glucose,[17],2
same,Transcripts per million (rpm),[17],416.6 rpm
same,Log2 differential normalized TPM ratio compared to glucose,[18],1.9
same,Transcripts per million (rpm),[18],165.8 rpm
same,Log2 differential normalized TPM ratio compared to glucose,[19],0.5
same,Transcripts per million (rpm),[19],1.5 rpm
same,Log2 differential normalized TPM ratio compared to glucose,[20],0.3
same,Transcripts per million (rpm),[20],109.5 rpm
same,Log2 differential normalized TPM ratio compared to glucose,[21],0.2
same,Transcripts per million (rpm),[21],93 rpm
same,Log2 differential normalized TPM ratio compared to glucose,[22],0.5
same,Transcripts per million (rpm),[22],20.8 rpm
same,Log2 differential normalized TPM ratio compared to glucose,[23],1
same,Transcripts per million (rpm),[23],5.5 rpm
same,Log2 differential normalized TPM ratio compared to glucose,[24],1.1
same,Transcripts per million (rpm),[24],75.1 rpm
same,Log2 differential normalized TPM ratio compared to glucose,[25],3.1
same,Transcripts per million (rpm),[25],10677.4 rpm
same,Log2 differential normalized TPM ratio compared to glucose,[26],0.7
same,Transcripts per million (rpm),[26],65.3 rpm
same,Log2 differential normalized TPM ratio compared to glucose,[27],1.8
same,Transcripts per million (rpm),[27],8.5 rpm
same,Transcripts per million (rpm),gene LBA0802 (Hypothetical protein),40.6 rpm
same,Log2 differential normalized TPM ratio compared to glucose,gene LBA0861 (Polyferredoxin),0.5
same,Transcripts per million (rpm),gene LBA0861 (Polyferredoxin),272.1 rpm
same,Log2 differential normalized TPM ratio compared to glucose,gene LBA1023 (Oxidoreductase),0.3
same,Transcripts per million (rpm),gene LBA1023 (Oxidoreductase),213.6 rpm
same,Log2 differential normalized TPM ratio compared to glucose,[28],0
same,Transcripts per million (rpm),[28],31.7 rpm
same,Log2 differential normalized TPM ratio compared to glucose,[29],0.4
same,Transcripts per million (rpm),[29],43.3 rpm
same,Log2 differential normalized TPM ratio compared to glucose,gene LBA1027 (Oxidoreductase),1.5
same,Transcripts per million (rpm),gene LBA1027 (Oxidoreductase),1733.7 rpm
same,Log2 differential normalized TPM ratio compared to glucose,[30],1.2
same,Transcripts per million (rpm),[30],302.8 rpm
same,Log2 differential normalized TPM ratio compared to glucose,[31],2.1
same,Transcripts per million (rpm),[31],294.6 rpm
same,Log2 differential normalized TPM ratio compared to glucose,[32],3.7
same,Transcripts per million (rpm),[32],57.4 rpm
same,Log2 differential normalized TPM ratio compared to glucose,[33],1.6
same,Transcripts per million (rpm),[33],53.4 rpm
same,Log2 differential normalized TPM ratio compared to glucose,gene LBA1469 (UDP-glucose 4-epimerase),5
same,Log2 differential normalized TPM ratio compared to glucose,[34],0.6
same,Transcripts per million (rpm),[34],30.6 rpm
same,Log2 differential normalized TPM ratio compared to glucose,[35],1.4
same,Transcripts per million (rpm),[35],1127.6 rpm
same,Log2 differential normalized TPM ratio compared to glucose,[36],1.2
same,Transcripts per million (rpm),[36],734.7 rpm
same,Log2 differential normalized TPM ratio compared to glucose,[37],−0.2
same,Transcripts per million (rpm),[37],14 rpm
same,Log2 differential normalized TPM ratio compared to glucose,[38],0.6
same,Transcripts per million (rpm),[38],10.7 rpm
same,Log2 differential normalized TPM ratio compared to glucose,[39],0.8
same,Transcripts per million (rpm),[39],31.5 rpm
same,Log2 differential normalized TPM ratio compared to glucose,[40],0.8
same,Transcripts per million (rpm),[40],15.3 rpm
same,Log2 differential normalized TPM ratio compared to glucose,[41],1.9
same,Transcripts per million (rpm),[41],5636.3 rpm
same,Log2 differential normalized TPM ratio compared to glucose,[42],2.8
same,Transcripts per million (rpm),[42],117.6 rpm
same,Log2 differential normalized TPM ratio compared to glucose,gene LBA1796 (ABC exporter),2.5
same,Transcripts per million (rpm),gene LBA1796 (ABC exporter),52.4 rpm
same,Log2 differential normalized TPM ratio compared to glucose,[43],2.4
same,Transcripts per million (rpm),[43],43.9 rpm
same,Log2 differential normalized TPM ratio compared to glucose,[44],0.2
same,Transcripts per million (rpm),[44],31.9 rpm

# — patent US20200222474A1, “COMPOSITIONS AND METHODS FOR INCREASING PHYTOCHEMICAL BIOAVAILABLITY AND BIOACTIVITY” (North Carolina State University, priority 2017, published 2020)
